According to patent publication US12686667B2, “Methods and compositions for gamma-glutamyl cycle modulation” (CANCER RESEARCH TECHNOLOGIES LLC, priority 2013, dated 2026):

Key:
Human Melanoma cells 624 = experiment: Survival of nude mice inoculated with human melanoma; type: in vivo, athymic nude mice; conditions: for survival of treated group: nude mice, 400 rads, Human Melanoma cells 624, 100 mg/kg I.P. every day, six days a week, followed up for 120 days, control: ten out of ten died
Protocol: In order to examine the survival rate of athymic nude mice, inoculated intravenously with tumors, one group of the inoculated mice was treated with BA-GGCI, and a second group of the inoculated mice were treated with placebo, and the effects of treatment with BA-GGCI and placebo were compared.
Two subgroups of nude mice were examined: a control group and an experimental group. The groups included a total of twenty athymic nude mice (ten control and ten experimental), each irradiated with 400 rads of radiation and inoculated with Human Melanoma cells 624 at 3.0×10,000,000 cells per mouse. Treatment of the experimental group with racemic BA-GGCI commenced at 24 hours after the inoculation. The treatment was administered intraperitoneally (I.P.) at a dose of 100 mg/kg in 2 cc of saline every day, six days a week. The control group received placebo (2 cc saline IP), every day, six days a week.
The subjects were followed up for 120 days.

lung CA CRL5891 = experiment: Survival of nude mice inoculated with human lung cancer; type: in vivo, athymic nude mice; conditions: for survival of treated group: nude male mice, 400 rads, lung CA CRL5891, 100 mg/kg I.P. every day, six days a week, followed up for 120 days, control: eight of ten died
Protocol: In order to examine survival of athymic nude mice inoculated intravenously with tumors, one group of the inoculated mice was treated with racemic BA-GGCI, and a second group of the inoculated mice were treated with placebo, and the effects of treatment with BA-GGCI and placebo were compared.
Two subgroups of nude male mice where examined: A control group and an experimental group. The groups included twenty athymic nude mice (ten control and ten experimental) subjects, each irradiated with 400 rads of radiation and inoculated with lung CA CRL5891 at 3×10,000,000 cells per mouse. Interventional treatment was identical to the first study as above.
The subjects were followed up for 120 days. In the Control group, eight of ten subjects died. Two of the surviving mice developed a large tumor.

[1] = test system: patients with advanced prostate cancer; experiment: Compassionate use treatment of patients with advanced prostate cancer; type: in vivo, human
Protocol: Two patients with advanced prostate cancer were treated under a compassionate use program with an exemplary GGCI
Racemic BA-GGCI was administered to two human subjects who were receiving hormonal therapy for 12 and 14 months respectively.
At the onset of the GGCI treatment, both patients were bedridden with PSA (Prostate Specific Antigen) values of 340 and 180 ng/mL respectively. Both subjects presented with multiple bone metastases, and agonizing pains. The GGCI treatment protocol comprised 600 mg of GGCI capsule 3 times/day (formulated for human based on less then 5% of the LD50 toxicity on mice).

B6C3F1 Mice = experiment: LD50 determination in B6C3F1 mice; type: in vivo; design: 1/10 LD50: unit: mg/kg/inj
Excerpt: Summary of LD50 Determination with a conjugate of L-penicillamine and salicylaldehyde (L-SAPA), a conjugate of L-penicillamine and benzaldehyde (L-BAPA), a conjugate of L-penicillamine and pyruvic aldehyde (L-PAPA) and a conjugate of L-penicillamine and glutaric dialdehyde (L-GAPA) in B6C3F1 Mice.

Balb C Mice = experiment: LD50 toxicity study on Balb C mice; type: in vivo
Protocol: LD50 data was measured, and exemplary gamma-glutamyl cycle inhibitor's toxicity study was conducted on Balb C Mice. A conjugate of L-penicillamine and methyl glyoxal (MGPA) was adminstered at about 4500 mg/kg ip, 5000 mg/kg oral. A conjugate of L-penicillamine and para-methoxyphenyl (PMPA) was administered at 5250 mg/kg ip, 5500 mg/kg oral; and a conjugate of L-penicillamine and citronellal (CNPA) was administered at 3250 mg/kg ip, 4500 mg/kg oral.

[2] = test system: human prostate tumor cell line; experiment: Nude mouse model inoculated with human prostate tumor cell line; racemic, L- and D-GGCI compared; type: in vivo, nude mice
Protocol: Relative activities of the exemplary enantiomeric GGCI compounds of this invention were compared. Conjugates of benzaldehyde, salicylaldehyde and para-methoxybenzaldehyde were prepared, using either enantiomeric L- or D-penicillamine as the second reactant. The efficacy of racemic BA-GGCI, racemic SA-GGCI and racemic PMB-GGCI in the treatment of human prostate cancer was tested using the nude mouse model as in Example 2, except that the nude mice were inoculated intravenously with a human prostate tumor cell line. One group of the inoculated mice was treated with the racemic BA-GGCI and a control group of the inoculated mice was treated with placebo, and the effects of treatment with GGCI and placebo were compared. Response to treatment was monitored by changes in [PSA].
The exemplary L- and D-enantiomer BA-GGCIs were prepared in accordance with synthetic scheme of FIG. 1 using L-penicillamine.

CD1 mice = experiment: Sub-acute (4 weeks) per os (via food) toxicity to mice; type: in vivo
Excerpt: Sample: L-Thiazolidine-di-methyl-carboxylic acid: “L-BAPA” powder was mixed in the food (pellets).
Subjects were examined for: Sub-acute (4 weeks) per os (via food) toxicity of L-BAPA to mice.
Forty females and forty male CD1 mice, 8-10 weeks old, were housed 5 per cage (milipore filtered top cages), half of them used as controls, receiving normal mouse diet (prepared at the breeding center food plant). The other half were the experimental group and received same food composition in which 0.6 g L-Thiazolidine-di-methyl-carboxylic acid in kg food was mixed and pelleted in smaller pellet machine. This food contains 12% humidity, as compared with 6% humidity of the control diet. The animals were fed ad libitum. All animals were weighed weekly and food consumption was recorded. Possible clinical or pharmaceutical effects were checked daily. After 4 weeks, the mice were put into metabolic cages for 24 hours, their urine was collected, and then the animals were bled before sacrificing. The blood was analyzed and bone marrow smears were prepared for differential count.
The reason for putting […] in a group was to assure enough blood and urine for analysis, so all the blood clinical chemistry and urinalysis are of a pool of 2 mice each. All other results are individual results, performed randomly on one of each 2 mouse group.
The following organs were examined histologically: adrenals, brain, eye, gonads, heart, intestines (colon, caecum, duodenum, ileum, rectum) kidneys, liver, lungs, lymph nodes (mesenterial and inguinal) mammary gland, mediastinum, esophagus, pancreas, pituitary, salivary gland, skeletal muscle, skin, spinal cord, spleen, stomach, thyroid, urinary bladder and uterus. The organs were fixed in Bouin's solution and stained with hematoxylin-eosin-phosphomolybdic-acid light green stain. Weights for the adrenals, gonads, kidneys, liver and pituitary were recorded and the ratio organ weight/body weight was calculated.
The following lab studies were performed:
Hematology: Hemoglobin, hematocrit, erythrocyte count, leukocyte count.
Clinical chemistry: alkaline phosphatase, blood urea nitrogen, serum glutamic, pyruvic transaminase, blood sugar.
Urinalysis: appearance occult blood, protein Ph, bilirubin, ketones, glucose, nitrites, urobilinogen.

[3] = subject #1, 600 mg capsule 3 times/day
[4] = subject #2, 600 mg capsule 3 times/day
[5] = CD1 mice, 0.6 g in kg food, 4 weeks
[6] = CD1 mice, 0.6 g in kg food, 4 weeks, versus control

| Structure (SMILES) | survival of treated group (Human Melanoma cells 624) | survival of treated group (lung CA CRL5891) | 1/10 LD50 (B6C3F1 Mice; Schedule Day 1, Route ip) | Calculated LD50 mg/kg/inj. (B6C3F1 Mice; Schedule Day 1, Route ip) [mg/kg/inj.] | 1/10 LD50 (B6C3F1 Mice; Schedule Day 1, Route oral) | Calculated LD50 mg/kg/inj. (B6C3F1 Mice; Schedule Day 1, Route oral) [mg/kg/inj.] | 1/10 LD50 (B6C3F1 Mice; Schedule Day 1-5, Route ip) | Calculated LD50 mg/kg/inj. (B6C3F1 Mice; Schedule Day 1-5, Route ip) [mg/kg/inj.] | 1/10 LD50 (B6C3F1 Mice; Schedule Day 1-5, Route oral) | Calculated LD50 mg/kg/inj. (B6C3F1 Mice; Schedule Day 1-5, Route oral) [mg/kg/inj.] | further results |
| --- | --- | --- | --- | --- | --- | --- | --- | --- | --- | --- | --- |
| COc1ccc(C2N[C@@H](C(=O)O)C(C)(C)S2)cc1 (mixture of isomers) [racemic PMB-GGCI, 2-imino-3-p-methoxybenzyl-4 sulfanyl-5 dimethyl 1-carboxylic acid] | results similar to those obtained with racemic BA-GGCI | results similar to those obtained with racemic BA-GGCI | – | – | – | – | – | – | – | – | – |
| CC1(C)SC(c2ccccc2O)NC1C(=O)O (racemic) [racemic SA-GGCI] | results similar to those obtained with racemic BA-GGCI | results similar to those obtained with racemic BA-GGCI | – | – | – | – | – | – | – | – | subjective well-being of patients ([1]; human patients, compared with BA-GGCI): subjectively felt better than patients to whom BA-GGCI was administered; overall treatment result in patients ([1]; human patients, compared with BA-GGCI treatment): results similar to those obtained with B-GGCI treatment |
| CC1(C)SC(CCCC=O)N[C@H]1C(=O)O (stereo partly drawn) [L-GAPA] | – | – | 375 | 3749 | 500 | >5000 | 169 | 1690 | 500 | >5000 | – |
| CC(=O)C1NC(C(=O)O)C(C)(C)S1 (centres unmarked) [MGPA] | – | – | – | – | – | – | – | – | – | – | LD50 (Balb C Mice; ip): about 4500 mg/kg; LD50 (Balb C Mice; oral): 5000 mg/kg |
| CC(C)=CCCC(C)CC1NC(C(=O)O)C(C)(C)S1 (centres unmarked) [CNPA] | – | – | – | – | – | – | – | – | – | – | LD50 (Balb C Mice; ip): 3250 mg/kg; LD50 (Balb C Mice; oral): 4500 mg/kg |
| CC(=O)C1N[C@@H](C(=O)O)C(C)(C)S1 (stereo partly drawn) [L-PAPA] | – | – | 500 | >5000 | 500 | >5000 | 277 | 2771 | 500 | >5000 | – |
| CC1(C)SC(c2ccccc2)NC1C(=O)O (racemic) [racemic BA-GGCI] | ten out of ten subjects in the treated group were all alive | all mice remained alive | – | – | – | – | – | – | – | – | tumor development in treated group (Human Melanoma cells 624; Human Melanoma cells 624 nude mice, 100 mg/kg I.P., after stopping the treatment): Two of the subjects developed small tumors after stopping the treatment; survival rate versus control group ([2]; nude mice inoculated intravenously with human prostate tumor cell line, treatment as in Example 2, response monitored by [PSA]): significantly higher survival rate than the control group; PSA value after treatment (dropped from 340) [1, 3]: 18 units; time to return to regular activities [1, 3]: within a month; time until pain level subsided [1, 3]: ≤ 10 days; PSA level after continued drop ([1]; subject #1, 600 mg capsule 3 times/day, later): 5 units; time subject felt normal ([1]; subject #1, before they eventually passed away): 28 months; bone CAT scan ([1]; subject #1, multiple bone metastases at onset): substantial remission; survival after initiation of the treatment (still alive, feeling well) ([1]; subject #2): ≥ 36 months; PSA after treatment (180 ng/mL at onset) [1, 4]: 16 units; time to return to normal activities [1, 4]: 2-3 weeks; time until pains subsided [1, 4]: 7 days; detectable tumor in treated group (lung CA CRL5891; lung CA CRL5891 nude mice, 100 mg/kg I.P., 120 days): none with detectable tumor |
| CC1(C)SC(c2ccccc2)N[C@H]1C(=O)O (stereo partly drawn) [L-BAPA] | – | – | 88.4 | 884 | 355 | 3553 | 88.4 | 884 | 216 | 2158 | activity compared to the corresponding racemate ([2]; (L) compound versus racemic mixture): at least twice as active as the corresponding racemic mixture; clinical symptoms, daily observation (CD1 mice; CD1 mice, 0.6 g in kg food ad libitum, 4 weeks): no clinical or other effect could be observed; Blood cell analysis and differential count (CD1 mice; [5]): All values are within the normal range and no significant difference between the control and the experimental groups is noted; Bone marrow differential count (CD1 mice; [5]): All values are within the normal range and no significant difference between the control and the experimental groups is noted; Histopathology (CD1 mice; CD1 mice, 0.6 g in kg food, 4 weeks, 10 male and 10 females per group, thirty-one organs): No other pathological or other changes could be observed; Food consumption (CD1 mice; CD1 mice, 0.6 g in kg food, 4 weeks, experimental food 12% humidity versus 6% control): more L-BAPA containing experimental food was consumed by the experimental group then normal food by the control; Blood clinical chemistry and urinalysis (CD1 mice; CD1 mice, 0.6 g in kg food, 4 weeks, pool of 2 mice each): All values are within the normal range and no significant difference between the control and the experimental groups is noted; Body weight (CD1 mice; [6]): no significant difference between the experimental group and the control group; Organ weight and ratio organ/body weight (CD1 mice; [6]): No significant difference between the experimental and the control group is noted; clinical or pathological changes (conclusion) (CD1 mice; mixed in the food (0.6 g in kg food), fed ad libitum for 4 weeks): does not produce any clinical or pathological changes to mice |
